Key:
[1] = system: IL-15-induced TNF-α synthesis in PBMC; assay: IL-15-induced TNF-α synthesis in PBMC (ELISA); format: cell-based, human; details: IL-15 5 ng/ml; 48 h; Cefazolin 20-1000 μM; vs IL-15 stimulated control cells
Protocol: (§1) All experiments were carried out on peripheral blood mononuclear cells (PBMC) from healthy donors. The cells were isolated under the standard protocol regarding density gradient centrifugation. According to the general protocol, 6 ml of blood was layered on 3 ml of Lymphoprep (Axis-shield, Norway), then centrifuged at 800×g for 15 min. The layer of PBMC was collected, the cells were washed twice with phosphate buffered saline (PBS) (BIOMED-LUBLIN, Poland) and suspended in medium RPMI1640 (Gibco, Great Britain), containing 10 mM HEPES (Sigma, USA), 10% fetal calf serum (BIOMED-LUBLIN, Poland) and antibiotic (streptomycin sulfate, penicillin G sodium; amphotericin B, PAA, Austria).
(§2) In all the in vitro experiments non-stimulated PBMC were used as the control. The inhibition efficacy was assessed in relation to the cells stimulated with IL-15 or IL-2. […]
(§3) The PBMC were seeded in a 24-well plate (2×10^6 cells in 1 ml of the culture medium/well), treated with the tested compound and after 30 min stimulated with IL-15 (5 ng/ml) or IL-2 (5 ng/ml). After 48 h incubation, the culture medium was collected from each well to determine the TNF-α concentration, cells were harvested and lysed, and the concentration of total protein was measured in cell lysates. The obtained values of TNF-α concentration were calculated for 1 mg of protein. […]

[2] = system: IL-15-induced IL-17 synthesis in PBMC; assay: IL-15-induced IL-17 synthesis in PBMC (ELISA); format: cell-based, human
Protocol: as §1, §2
as §3, with “PBMC” for “The PBMC”, “the inhibitor,” for “the tested compound and”, “30 min.” for “30 min”, “48 hr” for “48 h”, “the IL-17” for “the TNF-α”, “of IL-17” for “of TNF-α”

[3] = system: Gram-positive bacteria; details: cited from earlier work
[4] = cited from earlier work
[5] = system: IL-2-stimulated PBMC; assay: IL-2-induced PBMC proliferation (BrdU Cell Proliferation Assay); format: cell-based, human; details: IL-2 5 ng/ml; Cefazolin 20, 100, 300 μM; 4 days; repeated three times, different donors
Protocol: (§4) All experiments were carried out on peripheral blood mononuclear cells (PBMC) from healthy donors. The cells were isolated under the standard protocol regarding density gradient centrifugation. According to the general protocol, 6 ml of blood was layered on 3 ml of Lymphoprep (Axis-shield, Norway), then centrifuged at 800×g for 15 min. The layer of PBMC was collected, the cells were washed twice with phosphate buffered saline (PBS) (BIOMED-LUBLIN, Poland) and suspended in medium RPMI1640 (Gibco, Great Britain), containing 10 mM HEPES (Sigma, USA), 10% fetal calf serum (BIOMED-LUBLIN, Poland) and antibiotic (streptomycin sulfate, penicillin G sodium; amphotericin B, PAA, Austria). In all the in vitro experiments non-stimulated PBMC were used as the control. The inhibition efficacy was assessed in relation to the cells stimulated with IL-15 or IL-2. PBMC proliferation was evaluated using commercially available BrdU Cell Proliferation Assay (Calbiochem, Merck, Germany). PBMC were seeded in a 96-well plate (25×10^3 cells in 200 μL of the culture medium/well). The next day the cells were treated with the tested compound at final concentrations: 20 μM, 100 μM and 300 μM. […] The results are expressed as the percentage change of proliferating cells with regard to the control cells stimulated with IL-15 or IL-2. […]

[6] = system: IL-2-induced IL-17 synthesis in PBMC; assay: IL-2-induced IL-17 synthesis in PBMC (ELISA); format: cell-based, human; details: IL-2 5 ng/ml; 48 h; Cefazolin 300 μM
Protocol: as §1, §2
as §3, with “PBMC” for “The PBMC”, “the inhibitor,” for “the tested compound and”, “30 min.” for “30 min”, “48 hr” for “48 h”, “the IL-17” for “the TNF-α”, “of IL-17” for “of TNF-α”

[7] = system: IL-15-stimulated PBMC; assay: IL-15-induced PBMC proliferation (BrdU Cell Proliferation Assay); format: cell-based, human; details: IL-15 5 ng/ml; Cefazolin 20, 100, 300 μM; 4 days; repeated three times, different donors
Protocol: as §4

[8] = system: IL-2-induced TNF-α synthesis in PBMC; assay: IL-2-induced TNF-α synthesis in PBMC (ELISA); format: cell-based, human; details: IL-2 5 ng/ml; 48 h; Cefazolin 300 μM; vs IL-2 stimulated control cells
Protocol: as §1, §2, §3

[9] = system: PBMC
From the text: The inhibition of cell proliferation in the presence of the tested compound can be a visible sign of cells' death caused by the cytotoxic or apoptotic activity of the analyzed compound. […] LDH is a cytosolic enzyme which under physiological conditions is not released from cells. However, when cell membrane damage or cell death occurs, LDH enzyme is released into the matrix. Increased LDH activity in the culture medium correlates with the increased number of dead cells resulting from the cytotoxic effect of the tested compound. LDH activity measured in cell lysates is used for the assessment of a number of living cells. […] The experiments were repeated three time on PBMC from different donors.

Cc1nnc(SCC2=C(C(=O)O)N3C(=O)[C@@H](NC(=O)Cn4cnnn4)[C@H]3SC2)s1 [Cefazolin]
effect on IL-15-induced TNF-α synthesis in PBMC [1]: significantly reduces | effect on IL-15-induced IL-17 synthesis in PBMC ([2]; IL-15 5 ng/ml, 48 h, Cefazolin 20-1000 μM, vs IL-15 stimulated control cells): significantly reduces | effect of increasing Cefazolin concentration on IL-15-induced IL-17 synthesis ([2]; increase of concentration from 200 μM to 1000 μM): does not affect IL-17 synthesis to any great extent | bactericidal activity against Gram-positive bacteria [3]: Potent bactericidal activity | crossing of the blood brain barrier ([4]; in vivo): does not cross the blood brain barrier | excreted in urine of unchanged structure, share of the excreted amount ([4]; urine, glomerular filtration): 90% | effect on IL-2-induced PBMC proliferation [5]: inhibits | effect on IL-2-induced IL-17 synthesis in PBMC [6]: Strong inhibitory effect | effect on IL-15-induced PBMC proliferation [7]: inhibits | effect on IL-2-induced TNF-α synthesis in PBMC [8]: significantly reduces | cytotoxic or apoptotic activity on PBMC [9]: does not trigger the apoptotic pathway
